Experiment: Clinical trial ERC-205: DHEA 50 mg daily versus placebo on hot flushes in postmenopausal women (Example 10)
Format: in vivo
Conditions: 50 mg
Protocol: Postmenopausal women experiencing moderate or severe hot flushes per week (as determined by a two week diary) were randomized to receive a daily dose of either placebo or 50 mg DHEA. Fifty evaluable participants (25 patients per arm) were treated for four months with a daily assessment of hot flushes recorded in a diary completed by each participant.
Postmenopausal women aged 40 to 70 years with moderate or severe hot flushes per week, as confirmed by a two-week screening hot flush diary were enrolled after signing informed consent. The protocol was approved by the Institutional Review Board (IRB) of Le Centre Hospitalier de l'Université Laval and by Health Canada.
The primary endpoint was the change from Baseline in the weekly frequency of moderate to severe hot flushes at Week 16, after four months of treatment. The objectives also included the change from Baseline in the weekly frequency of all hot flushes and the change from Baseline in the weekly weighted severity score.
The response endpoint is the patient's paper diary which was filled in daily to specify the number and type of hot flushes as follows:
The hot flush diary began as a Screening diary for two weeks prior to randomization whereby patients had to complete the diary daily, recording the number and severity of hot flushes. The patients had to record an average of 50 or more moderate or severe hot flushes per week over the two-week period to be eligible (i.e., at least 100 hot flushes documented on the two week Screening diary).
Once randomized, the patient completed eight, two-week hot flush diaries upon beginning study medication. The diaries had to be filled out on a daily basis. The first diary was completed over the first two weeks and be returned on the two week visit. The second two-week diary was completed over the next two weeks of the first four week treatment period and was returned at the four week visit. At 4, 8, 12 and 16 week visits, two two-week diaries for hot flushes were collected.

[1] = strata 50 to 70 hot flushes per week at screening, Week 16
[2] = strata ≥71 hot flushes per week at screening, Screening (mean of 2 w), baseline
[3] = strata ≥71 hot flushes per week at screening, Week 1
[4] = strata ≥71 hot flushes per week at screening, Week 2
[5] = strata ≥71 hot flushes per week at screening, Week 3
[6] = strata ≥71 hot flushes per week at screening, Week 4
[7] = strata ≥71 hot flushes per week at screening, Week 5
[8] = strata ≥71 hot flushes per week at screening, Week 6
[9] = strata ≥71 hot flushes per week at screening, Week 7
[10] = strata ≥71 hot flushes per week at screening, Week 8
[11] = strata ≥71 hot flushes per week at screening, Week 9
[12] = strata ≥71 hot flushes per week at screening, Week 10
[13] = strata ≥71 hot flushes per week at screening, Week 11
[14] = strata ≥71 hot flushes per week at screening, Week 12
[15] = strata ≥71 hot flushes per week at screening, Week 13

SMILES: C[C@]12CC[C@H](O)CC1=CC[C@@H]1[C@@H]2CC[C@]2(C)C(=O)CC[C@@H]12 [DHEA, dehydroepiandrosterone]
- WEIGHTED SEVERITY SCORE OF HOT FLUSHES PER WEEK (MEAN) (strata 50 to 70 hot flushes per week at screening, Week 15): 83.7
- NUMBER OF ALL HOT FLUSHES PER WEEK (MEAN) [1]: 35.7
- NUMBER OF MODERATE TO SEVERE HOT FLUSHES PER WEEK (MEAN) [1]: 32.7
- WEIGHTED SEVERITY SCORE OF HOT FLUSHES PER WEEK (MEAN) [1]: 81.6
- NUMBER OF ALL HOT FLUSHES PER WEEK (MEAN) [2]: 91.0
- NUMBER OF MODERATE TO SEVERE HOT FLUSHES PER WEEK (MEAN) [2]: 88.5
- WEIGHTED SEVERITY SCORE OF HOT FLUSHES PER WEEK (MEAN) [2]: 241.6
- NUMBER OF ALL HOT FLUSHES PER WEEK (MEAN) [3]: 68.6
- NUMBER OF MODERATE TO SEVERE HOT FLUSHES PER WEEK (MEAN) [3]: 64.1
- WEIGHTED SEVERITY SCORE OF HOT FLUSHES PER WEEK (MEAN) [3]: 175.2
- NUMBER OF ALL HOT FLUSHES PER WEEK (MEAN) [4]: 57.9
- NUMBER OF MODERATE TO SEVERE HOT FLUSHES PER WEEK (MEAN) [4]: 53.5
- WEIGHTED SEVERITY SCORE OF HOT FLUSHES PER WEEK (MEAN) [4]: 150.8
- NUMBER OF ALL HOT FLUSHES PER WEEK (MEAN) [5]: 57.5
- NUMBER OF MODERATE TO SEVERE HOT FLUSHES PER WEEK (MEAN) [5]: 52.5
- WEIGHTED SEVERITY SCORE OF HOT FLUSHES PER WEEK (MEAN) [5]: 149.8
- NUMBER OF ALL HOT FLUSHES PER WEEK (MEAN) [6]: 62.7
- NUMBER OF MODERATE TO SEVERE HOT FLUSHES PER WEEK (MEAN) [6]: 57.8
- WEIGHTED SEVERITY SCORE OF HOT FLUSHES PER WEEK (MEAN) [6]: 166.5
- NUMBER OF ALL HOT FLUSHES PER WEEK (MEAN) [7]: 60.0
- NUMBER OF MODERATE TO SEVERE HOT FLUSHES PER WEEK (MEAN) [7]: 53.2
- WEIGHTED SEVERITY SCORE OF HOT FLUSHES PER WEEK (MEAN) [7]: 154.1
- NUMBER OF ALL HOT FLUSHES PER WEEK (MEAN) [8]: 53.9
- NUMBER OF MODERATE TO SEVERE HOT FLUSHES PER WEEK (MEAN) [8]: 47.6
- WEIGHTED SEVERITY SCORE OF HOT FLUSHES PER WEEK (MEAN) [8]: 138.7
- NUMBER OF ALL HOT FLUSHES PER WEEK (MEAN) [9]: 52.2
- NUMBER OF MODERATE TO SEVERE HOT FLUSHES PER WEEK (MEAN) [9]: 46.7
- WEIGHTED SEVERITY SCORE OF HOT FLUSHES PER WEEK (MEAN) [9]: 137.2
- NUMBER OF ALL HOT FLUSHES PER WEEK (MEAN) [10]: 48.9
- NUMBER OF MODERATE TO SEVERE HOT FLUSHES PER WEEK (MEAN) [10]: 43.3
- WEIGHTED SEVERITY SCORE OF HOT FLUSHES PER WEEK (MEAN) [10]: 129.0
- NUMBER OF ALL HOT FLUSHES PER WEEK (MEAN) [11]: 47.0
- NUMBER OF MODERATE TO SEVERE HOT FLUSHES PER WEEK (MEAN) [11]: 41.1
- WEIGHTED SEVERITY SCORE OF HOT FLUSHES PER WEEK (MEAN) [11]: 121.8
- NUMBER OF ALL HOT FLUSHES PER WEEK (MEAN) [12]: 46.9
- NUMBER OF MODERATE TO SEVERE HOT FLUSHES PER WEEK (MEAN) [12]: 41.6
- WEIGHTED SEVERITY SCORE OF HOT FLUSHES PER WEEK (MEAN) [12]: 121.6
- NUMBER OF ALL HOT FLUSHES PER WEEK (MEAN) [13]: 42.8
- NUMBER OF MODERATE TO SEVERE HOT FLUSHES PER WEEK (MEAN) [13]: 36.4
- WEIGHTED SEVERITY SCORE OF HOT FLUSHES PER WEEK (MEAN) [13]: 110.2
- NUMBER OF ALL HOT FLUSHES PER WEEK (MEAN) [14]: 39.3
- NUMBER OF MODERATE TO SEVERE HOT FLUSHES PER WEEK (MEAN) [14]: 33.1
- WEIGHTED SEVERITY SCORE OF HOT FLUSHES PER WEEK (MEAN) [14]: 98.7
- NUMBER OF ALL HOT FLUSHES PER WEEK (MEAN) [15]: 39.3
- NUMBER OF MODERATE TO SEVERE HOT FLUSHES PER WEEK (MEAN) [15]: 33.9
- WEIGHTED SEVERITY SCORE OF HOT FLUSHES PER WEEK (MEAN) [15]: 102.8
- NUMBER OF ALL HOT FLUSHES PER WEEK (MEAN) (strata ≥71 hot flushes per week at screening, Week 14): 37.3

— patent US11452731B2, “Method of treating and preventing loss of cognition” (ENDORECHERCHE, INC., priority 2009, dated 2022)
